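Step 1: Grow cells in 96-well plates. Step 2: Expose to compound for 48 hours at 5 concentrations. Step 3: Interpolate endpoints linearly; if unreached, use highest concentration. GI50 = concentration required for 50% inhibition of growth.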 The source made the active and inactive calls. No stated cut-off is given here; in the data, active = GI50 up to about 1.1 µM and inactive = higher.
Experiments:
Assay in all cases: DTP human tumour cell line panel, 48 h
SW-620 = system: SW-620
SK-MEL-2 = system: SK-MEL-2
SNB-78 = system: SNB-78
SF-295 = system: SF-295
NCI-H226 = system: NCI-H226
OVCAR-8 = system: OVCAR-8
U-251 = system: U-251
DLD-1 = system: DLD-1
RXF 393 = system: RXF 393
HT-29 = system: HT-29
A498 = system: A498
OVCAR-3 = system: OVCAR-3
SNB-19 = system: SNB-19
LXFL 529 = system: LXFL 529
LOX IMVI = system: LOX IMVI

Measured: GI50

O=C(Cc1nc2ccccc2c(=O)n1-c1ccccc1Cl)c1ccncc1
inactive: SW-620 > 100 µM | SK-MEL-2 > 100 µM | SNB-78 > 100 µM | SF-295 > 100 µM | NCI-H226 > 100 µM | OVCAR-8 > 100 µM | U-251 > 100 µM | DLD-1 > 100 µM | RXF 393 > 100 µM | HT-29 > 100 µM | A498 > 100 µM | OVCAR-3 > 100 µM | SNB-19 > 100 µM | LXFL 529 > 100 µM | LOX IMVI > 100 µM

COC(=O)C(CC(=O)Nc1ccc(C)cc1)C(=O)C(=O)Nc1c(C(C)C)cccc1C(C)C (centres undefined)
inactive: SW-620 > 100 µM | SK-MEL-2 > 100 µM | SNB-78 > 100 µM | NCI-H226 > 100 µM | OVCAR-8 > 100 µM | U-251 > 100 µM | DLD-1 > 100 µM | RXF 393 > 100 µM | A498 > 100 µM | SNB-19 > 100 µM | LXFL 529 99.1 µM | LOX IMVI > 100 µM

CN(C)CC1CCCC/C1=N/O (centres undefined)
inactive: SW-620 > 100 µM | SK-MEL-2 > 100 µM | SNB-78 > 100 µM | SF-295 > 100 µM | NCI-H226 > 100 µM | OVCAR-8 > 100 µM | U-251 > 100 µM | DLD-1 > 100 µM | RXF 393 > 100 µM | HT-29 > 100 µM | A498 > 100 µM | OVCAR-3 > 100 µM | LXFL 529 > 100 µM | LOX IMVI > 100 µM

CCOC(=O)C1(c2ccccc2)CCCNCC1 (centres undefined)
inactive: SW-620 > 100 µM | SK-MEL-2 > 100 µM | SNB-78 > 100 µM | SF-295 > 100 µM | NCI-H226 > 100 µM | OVCAR-8 39.4 µM | U-251 > 100 µM | DLD-1 58.5 µM | RXF 393 > 100 µM | HT-29 77.8 µM | A498 45.8 µM | OVCAR-3 74.6 µM | SNB-19 > 100 µM | LXFL 529 > 100 µM | LOX IMVI > 100 µM

NC(=S)N/N=C1\C(=O)N(c2cccc([N+](=O)[O-])c2)C(=O)C1C(=O)Nc1cccc([N+](=O)[O-])c1 (centres undefined)
inactive: SW-620 > 100 µM | SK-MEL-2 > 100 µM | SNB-78 > 100 µM | SF-295 > 100 µM | NCI-H226 > 100 µM | OVCAR-8 > 100 µM | U-251 > 100 µM | DLD-1 > 100 µM | RXF 393 > 100 µM | HT-29 > 100 µM | A498 > 100 µM | OVCAR-3 > 100 µM | SNB-19 > 100 µM | LXFL 529 > 100 µM | LOX IMVI > 100 µM

CCOC(=O)C(=O)Nc1c(C(C)C)cccc1C(C)C
inactive: SW-620 > 100 µM | SK-MEL-2 > 100 µM | SNB-78 > 100 µM | SF-295 > 100 µM | NCI-H226 > 100 µM | OVCAR-8 > 100 µM | U-251 > 100 µM | DLD-1 > 100 µM | RXF 393 > 100 µM | HT-29 > 100 µM | A498 > 100 µM | OVCAR-3 > 100 µM | SNB-19 > 100 µM | LXFL 529 > 100 µM

CC(=O)CCn1ncc(Cl)c(Cl)c1=O
inactive: SW-620 19 µM | SK-MEL-2 14.2 µM | SNB-78 19.8 µM | SF-295 19.1 µM | NCI-H226 16.7 µM | OVCAR-8 23.2 µM | DLD-1 11.2 µM | RXF 393 17.3 µM | HT-29 14.1 µM | A498 24.9 µM | OVCAR-3 13.7 µM | SNB-19 18 µM | LXFL 529 13.4 µM | LOX IMVI 15.6 µM

Reference: ChEMBL document CHEMBL1201862, “PubChem BioAssay data set” (2004)
